Article PMC10461224, “Development of an Affinity-Based Probe to Profile Endogenous Human Adenosine A3 Receptor Expression” (Journal of Medicinal Chemistry, 2023)

How the values were obtained:
hA3AR = biological target: T1, hA3AR (Homo sapiens, UniProt P0DMS8); assay: Wash-out assay, [3H]PSB-11 binding after washing; conditions: 1 μM compound, pre-incubated 2 h at 25 °C, washed 4 times
T1 construct: expressed in transfected cells; host or cells: CHO cells (CHOhA3AR), gift of Prof; K.N. Klotz, University of Würzburg; used as membrane fractions or live cells
T1 sequence (P0DMS8 1-318): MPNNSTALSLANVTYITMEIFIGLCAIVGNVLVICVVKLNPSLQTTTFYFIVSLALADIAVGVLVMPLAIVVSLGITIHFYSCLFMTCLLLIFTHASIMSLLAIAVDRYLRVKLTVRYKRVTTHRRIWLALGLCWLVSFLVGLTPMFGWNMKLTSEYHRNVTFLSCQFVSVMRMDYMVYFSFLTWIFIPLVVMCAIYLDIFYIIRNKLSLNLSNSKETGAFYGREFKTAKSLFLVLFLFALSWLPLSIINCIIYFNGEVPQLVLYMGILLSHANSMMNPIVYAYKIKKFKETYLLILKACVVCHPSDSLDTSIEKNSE
Procedure: 200 μL assay buffer (50 mM Tris–HCl, pH 8.0, 10 mM MgCl2, 1 mM EDTA and 0.01% CHAPS), 100 μL assay buffer containing the competing ligand (final concentration: 1 μM), and 100 μL of CHOhA3AR membrane fractions (100 μg protein) were combined and pre-incubated for 2 h at 25 °C while shaking. The ‘4× washed’ samples were centrifuged (5 min, 13,000 rpm, 4 °C), and the supernatant was removed. The resulting pellet was dissolved in 1 mL of assay buffer and incubated for 10 min at 25 °C while shaking. The ‘4× washed’ samples were then again centrifuged (2 min, 13,000 rpm, 4 °C), the supernatant was removed, and the resulting pellet was dissolved in 1 mL of assay buffer. The latter washing steps were repeated two times (four times washing total), and the final pellet was dissolved in 300 μL assay buffer. The radioligand (10 nM [^3H]PSB-11) in 100 μL of assay buffer was added to all samples, and the samples were incubated at 25 °C for 1 h. Nonspecific binding was determined in the presence of 100 μM NECA. Incubations were terminated by addition of 1 mL of ice-cold washing buffer (50 mM Tris–HCl, pH 8.0, 10 mM MgCl2, 1 mM EDTA) and rapid vacuum filtration through prewetted 96-well GF/B filter plates using a Brandel harvester. Filters were subsequently washed 5 times with ice-cold wash buffer. The plates were dried under vacuum, and a MicroscintTM-20 cocktail (PerkinElmer) was added subsequently. After 3 h, the filter-bound radioactivity was determined using a 2450 MicroBeta Microplate Counter (PerkinElmer).

human A1AR (hA1AR) = biological target: T2, human A1AR (hA1AR) (Homo sapiens, UniProt P30542); assay: Single-point radioligand displacement, [3H]DPCPX; assay type: binding; conditions: 1 μM probe; CHO cell membranes; co-incubated with radioligand 30 min at 25 °C; mean of two experiments
T2 construct: expressed in transfected cells; host or cells: CHO cells (CHOhA1AR), gift of Prof; S.J. Hill, University of Nottingham; membrane fractions
T2 sequence (P30542 1-326): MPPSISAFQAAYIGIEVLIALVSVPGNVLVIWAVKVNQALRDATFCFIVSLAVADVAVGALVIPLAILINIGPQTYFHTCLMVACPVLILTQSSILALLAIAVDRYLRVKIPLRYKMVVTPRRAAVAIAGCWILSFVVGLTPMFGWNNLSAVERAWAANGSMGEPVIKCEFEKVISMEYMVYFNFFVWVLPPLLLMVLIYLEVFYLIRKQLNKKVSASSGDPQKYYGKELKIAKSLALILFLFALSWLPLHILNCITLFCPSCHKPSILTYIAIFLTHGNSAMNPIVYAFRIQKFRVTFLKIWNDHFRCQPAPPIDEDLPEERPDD
Procedure: (§1) Membrane aliquots containing 15 μg (CHOhA3AR), 5 μg (CHOhA1AR), or 30 μg (HEK293hA2AAR and CHO-spap-A2BAR) of protein were resuspended in assay buffer (A3AR: 50 mM Tris–HCl, pH 8.0, 10 mM MgCl2, 1 mM EDTA, 0.01% CHAPS; A1AR and A2AAR: 50 mM Tris–HCl, pH 7.4; A2BAR: 50 mM Tris–HCl, pH 7.4, 0.1% CHAPS). […] Nonspecific binding was determined in the presence of 100 μM NECA (A3AR), 100 μM CPA (A1AR), 100 μM NECA (A2AAR), and 10 μM ZM241385 (A2BAR). Incubations were terminated by rapid vacuum filtration to separate the bound and free radioligand through prewetted 96-well GF/C filter plates using a PerkinElmer Filtermate harvester. Filters were subsequently washed 12 times with ice-cold wash buffer (A3AR: 50 mM Tris–HCl, pH 8.0, 10 mM MgCl2, 1 mM EDTA; A1AR and A2AAR: 50 mM Tris–HCl, pH 7.4; A2BAR: 50 mM Tris–HCl, pH 7.4, 0.1% BSA). The plates were dried at 55 °C, and MicroscintTM-20 cocktail (PerkinElmer) was added subsequently.
(§2) Single point displacement values shown are mean percentages of two individual experiments performed in duplicate. All pKi values shown are mean values ± SEM of three individual experiments performed in duplicate.

human A2BAR (hA2BAR) = biological target: T3, human A2BAR (hA2BAR) (Homo sapiens, UniProt P29275); assay: Single-point radioligand displacement, [3H]PSB-603; assay type: binding; conditions: 1 μM probe; CHO-spap cell membranes; co-incubated with radioligand 30 min at 25 °C; mean of two experiments
T3 construct: expressed in transfected cells; host or cells: CHO-spap cells (CHO-spap-hA2BAR), gift of S.J. Dowell, GlaxoSmithKline; membrane fractions
T3 sequence (P29275 1-332): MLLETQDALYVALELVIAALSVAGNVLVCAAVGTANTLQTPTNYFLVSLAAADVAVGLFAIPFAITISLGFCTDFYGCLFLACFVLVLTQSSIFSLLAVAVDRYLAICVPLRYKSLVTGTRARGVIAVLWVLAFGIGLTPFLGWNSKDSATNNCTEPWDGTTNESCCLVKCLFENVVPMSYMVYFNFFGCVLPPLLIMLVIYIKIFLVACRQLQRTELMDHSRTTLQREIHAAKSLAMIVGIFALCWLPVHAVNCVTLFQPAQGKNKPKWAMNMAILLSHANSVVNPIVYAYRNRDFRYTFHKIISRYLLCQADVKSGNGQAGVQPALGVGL
Procedure: as §1, §2

C#CCN(CCCn1c(=O)n(CCC)c(=O)c2c1nc1cc(OC)ccn12)C(=O)c1ccc(S(=O)(=O)F)cc1 [compound 5, 4-((3-(8-Methoxy-2,4-dioxo-3-propyl-3,4-dihydropyrido[2,1-f]purin-1(2H)-yl)propyl)(prop-2-yn-1-yl)carbamoyl)benzenesulfonyl fluoride]
binding to hA3AR after wash-out ([3H]PSB-11 binding recovery) (hA3AR): persistent binding | % specific [3H]DPCPX displacement, hA1AR (human A1AR (hA1AR)): 2% | % specific [3H]PSB-603 displacement, hA2BAR (human A2BAR (hA2BAR)): 10%

C#CCOc1ccn2c(c1)nc1c2c(=O)n(CCC)c(=O)n1CCCNC(=O)c1ccc(S(=O)(=O)F)cc1 [compound 9, 4-((3-(2,4-Dioxo-8-(prop-2-yn-1-yloxy)-3-propyl-3,4-dihydropyrido[2,1-f]purin-1(2H)-yl)propyl)carbamoyl)benzenesulfonyl fluoride]
binding to hA3AR after wash-out ([3H]PSB-11 binding recovery) (hA3AR): persistent binding | % specific [3H]DPCPX displacement, hA1AR (human A1AR (hA1AR)): 21% | % specific [3H]PSB-603 displacement, hA2BAR (human A2BAR (hA2BAR)): 1%
